Source: ChEMBL document CHEMBL3997830, “Design, synthesis and biological evaluation of nonsecosteroidal vitamin D3 receptor ligands as anti-tumor agents” (Bioorg Med Chem Lett, 2017)

Tests used:
[1] = biological target: T1, Vitamin D3 receptor (Homo sapiens) (UniProt P11473); experiment: Inhibition of Fluormone VDR Red binding to human VDR LBD expressed in insect cells assessed as binding ability at 1 uM by fluorescence polarization assay relative to 1,25(OH)2D3; design: scale not given: the % may be the effect or the level left
T1 sequence (whole entry): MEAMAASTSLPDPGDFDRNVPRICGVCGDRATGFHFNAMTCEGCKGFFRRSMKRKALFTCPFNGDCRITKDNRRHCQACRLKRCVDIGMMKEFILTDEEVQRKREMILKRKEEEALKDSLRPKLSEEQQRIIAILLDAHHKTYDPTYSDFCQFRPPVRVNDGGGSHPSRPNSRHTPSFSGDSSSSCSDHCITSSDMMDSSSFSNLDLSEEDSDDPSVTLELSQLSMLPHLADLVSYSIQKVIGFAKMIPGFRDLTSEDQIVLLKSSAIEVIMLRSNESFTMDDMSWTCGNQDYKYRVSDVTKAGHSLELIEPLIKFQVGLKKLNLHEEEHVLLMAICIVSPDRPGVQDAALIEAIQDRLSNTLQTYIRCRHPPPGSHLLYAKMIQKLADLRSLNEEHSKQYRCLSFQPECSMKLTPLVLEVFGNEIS

[2] = system: MCF7; experiment: Antiproliferative activity against human MCF7 cells after 72 hrs by MTT assay; assay type: functional, cell-based; details: MCF7, 72 h
[3] = system: PC-3; experiment: Antiproliferative activity against human PC3 cells after 72 hrs by MTT assay; assay type: functional, cell-based; details: PC-3, 72 h
[4] = biological target: T2, Vitamin D3 receptor (Homo sapiens, UniProt P11473); experiment: Inhibition of Fluormone VDR Red binding to human VDR LBD expressed in insect cells assessed as binding ability by fluorescence polarization assay
T2 sequence (P11473 whole entry): T1 sequence (whole entry)

[5] = system: L02; experiment: Antiproliferative activity against human L02 cells after 72 hrs by MTT assay; assay type: cell-based; details: L02, 72 h
[6] = Selectivity index, ratio of IC50 for human L02 cells to IC50 for human MCF7 cells; assay type: functional
[7] = Selectivity index, ratio of IC50 for human L02 cells to IC50 for human PC3 cells; assay type: functional

SMILES	Activity [1] [%]	IC50 [2] [µM]	IC50 [3] [µM]	IC50 [4] [µM]	IC50 [5] [µM]	Ratio IC50 [6]	Ratio IC50 [7]
CCN(CC)CCCNC(=O)c1ccc(C(CC)(CC)c2ccc(C#CC(O)(CC)CC)c(C)c2)n1CC	18.8	17.8	8.5				
CCN(CC)CCNC(=O)c1ccc(C(CC)(CC)c2ccc(C#CC(O)(CC)CC)c(C)c2)n1CC	62.2	3.77	5.85	0.0732	20.5	5.4	3.5
CCn1cc(C(CC)(CC)c2ccc(C#CC(O)(CC)CC)c(C)c2)cc1C(=O)N[C@@H](C)CO	19.8	1.91	6.05		35.4	18.5	5.9
CCCCC(=O)c1ccc(C(CC)(CC)c2ccc(C#CC(O)(CC)CC)c(C)c2)n1CC		> 50	> 50				
CCn1c(C(=O)On2nnc3ccccc32)ccc1C(CC)(CC)c1ccc(C#CC(O)(CC)CC)c(C)c1		> 50	> 50				
CCn1c(C(=O)N[C@H](C(=O)O)C(C)C)ccc1C(CC)(CC)c1ccc(C#CC(O)(CC)CC)c(C)c1	5.9	13	5				
CCn1c(C(=O)NCC(=O)O)ccc1C(CC)(CC)c1ccc(C#CC(O)(CC)CC)c(C)c1	55.4	5.14	2.25	0.0857			
CCn1cc(C(CC)(CC)c2ccc(C#CC(O)(CC)CC)c(C)c2)cc1C(=O)NCC(=O)O	14.6	17.5	6.3				
CCn1cc(C(CC)(CC)c2ccc(C#CC(O)(CC)CC)c(C)c2)cc1C(=O)NCCN(C)C	55.3	13.4	10.1	0.0513			
CCN(CC)CCNC(=O)c1ccc(C(CC)(CC)c2ccc(OCC(O)C(C)(C)C)c(C)c2)n1CC (stereo unspecified)	25.5	1.37	2.8	0.0768	21.2	15.5	7.6
CCn1cc(C(CC)(CC)c2ccc(C#CC(O)(CC)CC)c(C)c2)cc1C(=O)OCCO	29.7	1.88	11.4				
CCn1c(C(=O)NCc2ccc(OC)cc2)ccc1C(CC)(CC)c1ccc(C#CC(O)(CC)CC)c(C)c1	4	> 50	> 50				
CCCCC(=O)c1cc(C(CC)(CC)c2ccc(C#CC(O)(CC)CC)c(C)c2)cn1CC		> 50	48.1				
CCn1cc(C(CC)(CC)c2ccc(C#CC(O)(CC)CC)c(C)c2)cc1C(=O)NCC(=O)OC		26.5	17.4				
CCn1c(C(=O)NCCC(=O)OC)ccc1C(CC)(CC)c1ccc(C#CC(O)(CC)CC)c(C)c1		> 50	36.3				
CCn1cc(C(CC)(CC)c2ccc(C#CC(O)(CC)CC)c(C)c2)cc1C(=O)N[C@@H](C(=O)O)C(C)C	5.9	18	10.3				
CCN(CC)CCNC(=O)c1cc(C(CC)(CC)c2ccc(C#CC(O)(CC)CC)c(C)c2)cn1CC	50.3	1.8	5.35	0.0565	42.1	23.4	7.9
CCn1cc(C(CC)(CC)c2ccc(C#CC(O)(CC)CC)c(C)c2)cc1C(=O)NCCCN(C)C	31.6	20.2	15.1				
C#CCCOC(=O)c1ccc(C(CC)(CC)c2ccc(C#CC(O)(CC)CC)c(C)c2)n1CC		> 50	> 50				
CCn1c(C(=O)NCCC(=O)O)ccc1C(CC)(CC)c1ccc(C#CC(O)(CC)CC)c(C)c1	13.6	> 50	5.13				
CCn1c(C(=O)NCCCO)ccc1C(CC)(CC)c1ccc(C#CC(O)(CC)CC)c(C)c1	59.7	5.95	> 50	0.123			
CCn1cc(C(CC)(CC)c2ccc(C#CC(O)(CC)CC)c(C)c2)cc1C(=O)N[C@H](C(=O)O)C(C)C	20	12.6	3.75				
CCn1cc(C(CC)(CC)c2ccc(C#CC(O)(CC)CC)c(C)c2)cc1C(=O)NCCC(=O)O	4.3	30.6	> 50				
